Source: patent publication US20260272923A1, “NONSENSE MEDIATED DECAY INHIBITOR COMPOUNDS” (The Johns Hopkins University, priority 2023, published 2026)

Assays:
NCI-H358 and LS180 cells = assay: MHC class I HLA presentation of mutant specific peptides by quantitative HPLC-Mass Spectrometry; assay type: cell-based; details: 24 hours in-vitro, pan-HLA immunoprecipitation
Procedure: Downregulating mutated genes with frame shifts via NMD is one mechanism employed by cancer cells to avoid immune surveillance. To confirm the small molecule could alter the immune landscape of a tumor, cell surface presentation of known mutant proteins was assessed in NCI-H358 and LS180 cells. Cells were treated in-vitro for 24 hours with DMSO or the compound of Formula I in duplicate, cross linked and immunoprecipitated with pan-HLA antibodies to obtain cell surface MHC presented peptides. 187 mutation specific peptides were initially identified that could be potentially presented by using the union of NetMHC and Predictor of Immunogenic Epitopes (PRIME) predictions. These predictions were tested by performing HPLC Mass Spectromety (MS) on cells that were treated in-vitro for 24 hours with DMSO or the compound of Formula I, cross linked and immunoprecipitated with pan-HLA antibodies to obtain cell surface MHC presented peptides. Based on those results, heavy isotope labeled peptides were designed for 14 peptides from NCI-H358, and 24 peptides from LS180 cells with high confidence of MS detection. These heavy labeled peptides were then used as internal standard to perform quantitative HPLC-Mass Spectrometry. […] This is consistent with re-expression of mutant protein shown previously by western blot (FIGS. 3C and 4D). […]

LLC (Lewis Lung Cancer) = assay: Syngeneic LLC tumor mouse model; assay type: in vivo, mice
Text: Murine RENCA (renal) and LLC (Lewis Lung Cancer) cell lines were chosen as they harbor a large number of out of frame indel mutations based on whole exome DNA sequencing (WES) (Table SX-RENCA and LLC mutations). It was confirmed that treatment of these cell lines could stop NMD mediated repression of mutant RNA, and induced expression of exogenous genes controlled by NMD by real time PCR. […]

[1] = test system: NMD targeted mutant protein (EXOC1, SPTAN1); assay: Western blot of mutant proteins in NCI-H358 and LS180 cells; assay type: cell-based; details: NCI-H358 and LS180
Text: (§1) It was next sought to evaluate whether LY3023414 could relieve repression of indel containing transcripts in cancer cells. The microsatellite stable NCI-H358 and microsatellite instable LS180 lung and colorectal cancer cell lines were chosen respectively. Nearly 40% of heterozygous indel and 25% of nonsense single base-pair mutation containing genes show increased expression of their mutant allele when treated with LY3023414 when evaluated by RNA sequencing (FIG. 2A). […] Heterozygous single nucleotide polymorphism (SNP) Ring Finger Protein 43 (RNF43) and drosha ribonuclease […] (DROSHA) served as controls, and allele ratios remain unchanged with treatment (FIG. 2B). To investigate for changes at the protein level, NCI-H358 cells were treated for 24 hours with either LY3023414 or DMSO.
(§2) Analyzing a wider set of 21 NMD sensitive genes from the RNA-Seq analysis in LS180 confirmed that LY3023414 and SMG1 specific inhibitor increase the same 18 genes with a greater than 80% re-expression rate, in both cell lines. […] As SMG1 inhibition is an off target effect for LY3023414, the concentrations used in this study may result in inhibition of a number of different kinases.
(§3) To confirm disruption of downstream signaling of SMG1, a western blot was performed with phosphorylation specific antibodies for UPF1.

[2] = test system: NCI-H716 and NCI-2228 cell lines with and without HLA-A24 expression; assay: Luciferase cell killing co-culture assay; assay type: cell-based; details: with human CD8+ T-cells and bispecific antibody
Procedure: To determine whether this relief of repression is targetable, a bispecific antibody targeting wild type TP53 and CD3 was employed. […] To assess if these novel antigens could be utilized for immune driven cell specific killing, NCI-H716 and NCI-2228 cell lines with and without HLA-A24 expression were labeled with luciferase. […] To establish this effect remained in-vivo, NCI-H716 cells expressing HLA-A24 and luciferase were placed orthotopically in NSG mice. Tumor size was measured by luciferase readings via bioluminescence imaging (BLI).

phosphorylated UPF1 = assay: Phospho-UPF1 specific western blot; assay type: cell-based; details: three different cell lines
Procedure: as §2, §3

[3] = Physical properties related to solubility; assay type: physicochemical; details: compared with previously made SMG1 specific inhibitors
melanoma line B16-F10 = assay: Syngeneic B16-F10 melanoma model; assay type: in vivo
[4] = test system: nonsense mediated decay (NMD); assay: NCI-H358 and LS180 xenograft tumors in NOD-SCID mice, mutant RNA transcripts and tolerability; assay type: in vivo
[5] = test system: nonsense mediated decay (NMD); assay: Targeted RNA sequencing of heterozygous indel mutations in NCI-H358 and LS180 cells; assay type: cell-based; details: NCI-H358 and LS180 cells treated in-vitro
Text: as §1, §2, §3

SMG1 protein = SMG1 protein (Homo sapiens, UniProt Q96Q15); assay: Kinativ assay; assay type: binding; details: 100 nM run in duplicate
RENCA (renal) = assay: Syngeneic RENCA tumor mouse model; assay type: in vivo, mice
Procedure: Confident NMD inhibition with the compound of Formula I was leading to in-vivo changes to the tumor and its immune environment and it was evaluated whether these alterations could be taken advantage of in an immune competent system. Murine RENCA (renal) and LLC (Lewis Lung Cancer) cell lines were chosen as they harbor a large number of out of frame indel mutations based on whole exome DNA sequencing (WES) (Table SX-RENCA and LLC mutations). It was confirmed that treatment of these cell lines could stop NMD mediated repression of mutant RNA, and induced expression of exogenous genes controlled by NMD by real time PCR. Cells were placed in the mammary fat pad of C57BL/6N (LLC also known as LL2) and BALB/c (RENCA) mice, randomly sorted animals after tumors became palpable ensuring to balance the tumor size of each group, and then treated with vehicle or the compound of Formula I (FIG. 6A).

NCI-H716 and NCI-2228 = assay: Interferon gamma ELISA in co-culture with human CD8+ T-cells and TP53-CD3 bispecific antibody; assay type: cell-based

Sequence of SMG1 protein (Q96Q15 whole entry): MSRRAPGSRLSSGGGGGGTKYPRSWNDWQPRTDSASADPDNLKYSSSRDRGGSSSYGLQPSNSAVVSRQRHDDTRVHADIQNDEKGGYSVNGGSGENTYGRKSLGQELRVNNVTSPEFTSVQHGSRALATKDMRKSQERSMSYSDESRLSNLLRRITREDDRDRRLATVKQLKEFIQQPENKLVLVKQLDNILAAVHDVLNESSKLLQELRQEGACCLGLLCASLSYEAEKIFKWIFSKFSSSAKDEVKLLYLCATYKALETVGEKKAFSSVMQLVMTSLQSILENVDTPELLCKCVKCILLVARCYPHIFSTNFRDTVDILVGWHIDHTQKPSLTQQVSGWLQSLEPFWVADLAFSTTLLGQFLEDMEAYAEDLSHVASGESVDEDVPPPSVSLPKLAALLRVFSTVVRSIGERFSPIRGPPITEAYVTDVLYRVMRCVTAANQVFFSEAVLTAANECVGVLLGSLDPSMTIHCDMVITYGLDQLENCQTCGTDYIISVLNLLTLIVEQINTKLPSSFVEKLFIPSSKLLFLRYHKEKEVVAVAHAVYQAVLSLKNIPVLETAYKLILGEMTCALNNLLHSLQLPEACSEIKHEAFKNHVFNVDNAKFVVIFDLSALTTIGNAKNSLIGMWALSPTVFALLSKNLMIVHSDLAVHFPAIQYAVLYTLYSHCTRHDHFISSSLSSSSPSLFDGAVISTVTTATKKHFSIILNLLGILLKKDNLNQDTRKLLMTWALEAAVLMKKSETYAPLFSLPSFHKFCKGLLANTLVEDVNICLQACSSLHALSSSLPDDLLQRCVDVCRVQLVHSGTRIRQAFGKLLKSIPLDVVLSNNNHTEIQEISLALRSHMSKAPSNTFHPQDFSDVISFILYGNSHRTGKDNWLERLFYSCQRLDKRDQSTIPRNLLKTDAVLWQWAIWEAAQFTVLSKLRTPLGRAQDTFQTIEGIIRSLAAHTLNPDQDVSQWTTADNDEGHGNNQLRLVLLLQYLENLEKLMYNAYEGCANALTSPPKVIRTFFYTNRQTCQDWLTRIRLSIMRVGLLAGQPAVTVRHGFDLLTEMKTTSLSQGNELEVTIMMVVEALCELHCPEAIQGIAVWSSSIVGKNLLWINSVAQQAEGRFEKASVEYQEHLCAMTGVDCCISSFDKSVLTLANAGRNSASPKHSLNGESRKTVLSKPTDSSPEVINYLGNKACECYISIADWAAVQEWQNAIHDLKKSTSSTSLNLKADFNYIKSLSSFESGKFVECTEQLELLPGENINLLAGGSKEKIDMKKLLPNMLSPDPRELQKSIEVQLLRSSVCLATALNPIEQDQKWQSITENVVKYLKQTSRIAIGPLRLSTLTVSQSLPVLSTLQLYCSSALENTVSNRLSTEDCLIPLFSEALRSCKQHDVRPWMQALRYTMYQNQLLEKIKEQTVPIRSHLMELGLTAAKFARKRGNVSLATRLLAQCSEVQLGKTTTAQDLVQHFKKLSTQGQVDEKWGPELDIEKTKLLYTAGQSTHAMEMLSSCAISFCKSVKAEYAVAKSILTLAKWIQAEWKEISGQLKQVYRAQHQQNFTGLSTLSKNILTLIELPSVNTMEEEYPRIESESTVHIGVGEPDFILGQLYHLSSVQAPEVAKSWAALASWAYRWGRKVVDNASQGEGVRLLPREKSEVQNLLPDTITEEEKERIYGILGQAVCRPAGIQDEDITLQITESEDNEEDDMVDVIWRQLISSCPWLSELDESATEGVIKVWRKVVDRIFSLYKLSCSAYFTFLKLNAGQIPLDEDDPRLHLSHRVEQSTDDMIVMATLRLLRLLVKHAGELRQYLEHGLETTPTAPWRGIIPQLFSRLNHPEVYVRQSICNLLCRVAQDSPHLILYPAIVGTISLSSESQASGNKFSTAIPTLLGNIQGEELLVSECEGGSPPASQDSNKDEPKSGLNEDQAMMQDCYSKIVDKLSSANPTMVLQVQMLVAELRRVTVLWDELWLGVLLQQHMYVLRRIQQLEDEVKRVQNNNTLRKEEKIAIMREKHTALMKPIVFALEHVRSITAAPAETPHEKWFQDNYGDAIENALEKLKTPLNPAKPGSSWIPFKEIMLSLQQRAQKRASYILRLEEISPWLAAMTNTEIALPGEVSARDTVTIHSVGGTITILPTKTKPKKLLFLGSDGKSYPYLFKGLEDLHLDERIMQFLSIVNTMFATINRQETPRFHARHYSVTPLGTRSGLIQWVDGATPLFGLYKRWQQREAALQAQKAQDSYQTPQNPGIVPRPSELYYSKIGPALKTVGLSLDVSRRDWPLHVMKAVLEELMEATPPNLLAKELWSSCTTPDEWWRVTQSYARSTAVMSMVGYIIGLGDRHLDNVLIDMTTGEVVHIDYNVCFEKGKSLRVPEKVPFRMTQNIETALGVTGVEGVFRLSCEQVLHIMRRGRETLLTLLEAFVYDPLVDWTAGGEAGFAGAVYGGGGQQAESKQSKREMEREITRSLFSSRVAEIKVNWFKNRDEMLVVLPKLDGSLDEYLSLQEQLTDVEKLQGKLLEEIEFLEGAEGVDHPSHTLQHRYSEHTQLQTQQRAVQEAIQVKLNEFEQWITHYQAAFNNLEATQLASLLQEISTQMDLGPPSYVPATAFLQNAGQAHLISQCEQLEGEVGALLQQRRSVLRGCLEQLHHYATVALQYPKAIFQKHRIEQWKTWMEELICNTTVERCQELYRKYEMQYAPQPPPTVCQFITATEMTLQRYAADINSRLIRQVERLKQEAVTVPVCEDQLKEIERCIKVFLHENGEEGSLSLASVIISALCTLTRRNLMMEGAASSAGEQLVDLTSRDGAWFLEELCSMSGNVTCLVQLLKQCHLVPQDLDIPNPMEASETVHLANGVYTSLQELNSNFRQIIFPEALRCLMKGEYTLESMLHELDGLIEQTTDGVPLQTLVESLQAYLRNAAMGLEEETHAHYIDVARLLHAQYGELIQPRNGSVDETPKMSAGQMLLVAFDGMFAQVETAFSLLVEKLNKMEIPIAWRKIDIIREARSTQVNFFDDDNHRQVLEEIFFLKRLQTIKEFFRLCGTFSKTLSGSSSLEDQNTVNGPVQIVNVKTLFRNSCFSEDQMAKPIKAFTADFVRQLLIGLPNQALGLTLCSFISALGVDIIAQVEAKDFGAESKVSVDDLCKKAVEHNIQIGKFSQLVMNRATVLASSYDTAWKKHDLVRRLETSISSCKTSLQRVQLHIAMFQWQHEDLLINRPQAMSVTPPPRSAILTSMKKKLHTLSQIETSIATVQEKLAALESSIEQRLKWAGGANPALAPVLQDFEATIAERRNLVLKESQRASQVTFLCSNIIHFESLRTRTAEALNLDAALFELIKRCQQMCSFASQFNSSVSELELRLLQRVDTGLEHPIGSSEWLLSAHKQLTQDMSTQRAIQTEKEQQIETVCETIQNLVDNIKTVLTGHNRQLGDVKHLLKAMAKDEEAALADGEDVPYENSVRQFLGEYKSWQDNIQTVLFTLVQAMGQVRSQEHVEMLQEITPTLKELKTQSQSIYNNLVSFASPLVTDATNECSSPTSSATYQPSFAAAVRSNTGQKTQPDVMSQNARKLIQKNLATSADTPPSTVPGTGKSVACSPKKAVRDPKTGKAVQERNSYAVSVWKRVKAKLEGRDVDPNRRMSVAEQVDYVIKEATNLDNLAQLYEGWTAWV

CNC(=O)Nc1ccc(-c2cc(-c3ccnc(Nc4ccc(Cl)c(S(=O)(=O)N5CCNCC5)c4)n3)ccn2)cc1 [compound of Formula I]
cell surface MHC presentation of mutant specific neoantigen (NCI-H358 and LS180 cells): presence of a neoantigen specific to the mutant alleles of two genes in NCI-H358 and two other genes in LS180 cells | weight loss (LLC (Lewis Lung Cancer); C57BL/6N background): No weight loss | tumor growth (LLC (Lewis Lung Cancer); C57BL/6N mice, 30 mg/kg): Significant slowing of tumor growth | tumor growth in immunosuppressed mice (LLC (Lewis Lung Cancer); immunodeficient C57BL/6N SCID mice): minimal or no difference in cell growth | mutant protein expression (western blot) [1]: induce expression of the NMD targeted mutant protein | cell killing [2]: cell killing only in cells with HLA-A24 present | amount of phosphorylated UPF1 (phosphorylated UPF1): strongly decreased the amount of phosphorylated UPF1 | physical properties related to solubility [3]: more desirable physical properties related to solubility | tumor volume (melanoma line B16-F10): showed a change in tumor volume | toxicity related behavior (e.g., hunching, lethargy) ([4]; doses up to 50 mg/kg): did not show any toxicity related behavior | mutant transcript levels in tumors relative to untreated mice ([4]; intraperitoneal (IP)): increases in mutant transcript levels | bioactive concentration range (dose response curves) [5]: bioactive in the nanomolar range | specificity for SMG1 over other kinases (SMG1 protein): maintains high specificity for SMG1 protein over other kinases | weight loss (RENCA (renal); BALB/c background, within tolerable limits): Some weight loss | tumor growth (RENCA (renal); BALB/c mice, 20 mg/kg): Significant slowing of tumor growth | tumor growth in immunosuppressed mice (RENCA (renal); immunodeficient NSG (BALB/c) mice): minimal or no difference in cell growth | interferon gamma release (NCI-H716 and NCI-2228; with bispecific antibody and human CD8+ T-cells): increase in interferon gamma release | interferon gamma levels (NCI-H716 and NCI-2228; without bispecific antibody): no change in interferon gamma levels
